The target in one data set is T1, NPEPPS (Homo sapiens, UniProt P55786).
T1 construct: endogenous in cells; host or cells: HEK293T
The experiment in a line: Cell-based NPEPPS activity assay (Q-AMC fluorescence). The note with it: for EC50: log10 transformed, EC50 = concentration that elevates 50% NPEPPS activity (150% of DMSO baseline), HEK293T cells; for fluorescence change (NPEPPS activity): Q-AMC assay, inhibitors, FIG. 2D. Here is the method: HEK293T cells (AATC) were maintained in a complete media containing DMEM (Gibco 11995-065) in the presence of 10% fetal bovine serum (FBS, Gibco 10082147), […] penicillin and 50 μg/ml streptomycin (Gibco 15140163) at 37° C. with 5% CO2. NPEPPS activity assay was conducted in a fresh-prepared minimal medium containing essential amino acids, vitamin, AlbuMax (Invitrogen 11021-029) in 1×HBS buffer. Black wall, clear bottom 384-well assay plates (Greiner EK-30092) were coated with poly-L-ornithine (0.1 mg/ml, Sigma P3655) overnight and washed once with 1×PBS. 15 μl minimal medium was then added to each well. 250 nL of compounds dissolved in OmniSolve methylsulfoxide (dimethyl sulfoxide, DMSO, Sigma MX1456P) were pinned to each well via Biomek FX^P Liquid Handling Automation (Beckman Coulter) from compound source plates, i.e., either pre-made compound libraries or JMM compounds (20-step, 2-fold dilution) dissolved in OmniSolve DMSO prepared via Biomek automation in 384-well clear V-bottom polypropylene microplates (ThermoScientific 50-823-639). Cells were harvested, resuspended in minimal medium, and seeded at 16,500 cells/15 μl/well in the 384-well assay plates. 24 hrs later, 30 μl 200 μM H-Gln-AMC hydrobromide salt (Q-AMC, Bachem #I-1175) in 1×HBS containing 0.1% DMSO was added into each well. The fluorescent signal at excitation/emission wavelengths of 360/460 nm was measured immediately upon Q-AMC addition and 3 hrs post-Q-AMC. The change in fluorescence is measured as a readout of NPEPPS activity.
To identify small molecules that either increase NPEPPS levels or NPEPPS activity, a cell-based NPEPPS activity assay amenable to high-throughput screening (HTS) by adapting a fluorescent peptidase activity assay^2 was developed. Since NPEPPS is one of the only aminopeptidases capable of cleaving glutamine-peptide bonds^3 and the major aminopeptidase responsible for degradation of poly-glutamine sequences in the brain^4, a fluorogenic compound, glutamine-7-amino-4-methylcoumarin (Q-AMC), was selected as a substrate to measure NPEPPS activity. The peptide bond of Q-AMC is hydrolyzed by NPEPPS to release glutamine and a fluorescent product, 7-amino-4-methylcoumarin (AMC), when Q-AMC is added directly to the cell culture media. This change in fluorescence is measured as a readout of aminopeptidase activity (FIG. 2A). Overexpression of NPEPPS in HEK293T cells results in a significant increase in fluorescence, whereas knock-down or chemical inhibition of NPEPPS decrease fluorescence change (FIG. 2B-D), validating that the changes in fluorescence observed in the Q-AMC-based assay directly correlate with changes in NPEPPS activity. A high-throughput (HTS) screen (201,845 compounds) was conducted at the UCLA MSSR core (FIG. 2E). Follow-up assays and chemical clustering identified three series of compounds with distinct chemical clusters (FIG. 2F).
(§1) To investigate the effects of JMM compounds that enhance NPEPPS activity and assess their cellular toxicity, 139 compounds in the JMM series (i.e., JMM001-JMM139) were tested in dose responses (20-step, 2-fold dilution) using NPEPPS activity and viability assays in HEK293T cells. 76 compounds harboring different modifications produce concentration-dependent enhancement on NPEPPS activity compared to DMSO control (FIG. 4). […] A therapeutic index (TI, a ratio of IC50 over EC50) is used to evaluate the relative safety profiles of the compounds. […] 16 JMM compounds show both improved potency and reduced toxicity (EC50<10 μM and TI>10, Table 1).

The next data set relates to HEK293T cells. The experiment in a line: Cell viability assay (CellTiter Glo). Format: cell-based, human. The note with it: for IC50: Homo sapiens, HEK-293T, log10 transformed, IC50 = concentration that suppresses 50% cell viability, HEK293T cells; for Therapeutic index: ratio of IC50 (cell viability) over EC50 (NPEPPS activity). Here is the method: HEK293T cells (AATC) were maintained in complete media and cell viability assay was conducted in a fresh-prepared minimal medium containing essential amino acids, vitamin, AlbuMax (Invitrogen 11021-029) in 1×HBS buffer. White 384-well assay plates (Greiner EK-30080) were coated with poly-L-ornithine (0.1 mg/ml) overnight and washed once with 1×PBS. 15 μl minimal medium was then added to each well. 250 nl of compounds dissolved in OmniSolve DMSO were pinned to each well via Biomek FX^P Liquid Handling Automation from compound source plates. Cells were harvested, resuspended in minimal medium, and seeded at 16,500 cells/15 μl/well in the 384-well assay plates. 24 hrs later, 25 μl/well CellTiter Glo reagent (Promega G7572) was added into each well, and luminescence (0.5 second integration time) was acquired following manufacture's protocol. Luminescence count normalized to DMSO control is used as a readout of cell viability.
as §1

T1 sequence (P55786 whole entry): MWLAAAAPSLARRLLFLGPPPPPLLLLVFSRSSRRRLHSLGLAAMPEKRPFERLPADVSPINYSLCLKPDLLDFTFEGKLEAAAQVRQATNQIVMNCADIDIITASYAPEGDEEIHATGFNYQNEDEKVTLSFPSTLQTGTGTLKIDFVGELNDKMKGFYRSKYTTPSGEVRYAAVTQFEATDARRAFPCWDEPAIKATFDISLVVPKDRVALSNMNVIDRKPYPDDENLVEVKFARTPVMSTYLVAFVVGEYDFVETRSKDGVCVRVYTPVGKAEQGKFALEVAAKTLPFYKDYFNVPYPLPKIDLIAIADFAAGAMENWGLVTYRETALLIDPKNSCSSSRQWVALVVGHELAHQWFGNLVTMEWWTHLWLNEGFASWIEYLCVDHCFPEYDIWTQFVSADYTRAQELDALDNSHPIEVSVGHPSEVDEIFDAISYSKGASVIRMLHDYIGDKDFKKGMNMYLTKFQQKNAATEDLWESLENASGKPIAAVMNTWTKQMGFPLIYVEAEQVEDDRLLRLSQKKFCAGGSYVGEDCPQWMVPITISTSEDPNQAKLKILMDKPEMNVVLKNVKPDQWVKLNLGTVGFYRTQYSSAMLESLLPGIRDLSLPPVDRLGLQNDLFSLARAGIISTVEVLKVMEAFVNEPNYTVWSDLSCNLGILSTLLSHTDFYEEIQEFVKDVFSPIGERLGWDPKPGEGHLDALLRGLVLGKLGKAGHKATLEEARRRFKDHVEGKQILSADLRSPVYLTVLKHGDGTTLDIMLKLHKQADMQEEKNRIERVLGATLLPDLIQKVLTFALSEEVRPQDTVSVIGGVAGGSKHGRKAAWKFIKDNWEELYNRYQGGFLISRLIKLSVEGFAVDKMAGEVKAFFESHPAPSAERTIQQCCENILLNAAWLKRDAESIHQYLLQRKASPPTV

In turn, `COc1ccc(C(=O)Nc2nsc3ccccc23)cc1OC` [JMM002] showed an EC50 at NPEPPS of 1020 µM. In addition, in the data set on HEK293T cells, half-maximal inhibition (IC50) was put at 1410 µM and the Therapeutic index stood at 1.36.
On to `COc1ccc(CNc2nsc3ccccc23)cc1` [JMM003], for which the EC50 on NPEPPS is 257 µM. For the same molecule, in the data set with HEK293T cells, the IC50 is 263 µM and the Therapeutic index is 1.03.
Regarding `COc1ccc(C(=O)Nc2nsc3ccccc23)cc1` [JMM004], on NPEPPS, the EC50 was 407 µM. Also, in the data set on HEK293T cells, half-maximal inhibition (IC50) required 372 µM and the Therapeutic index is given as 0.90.
In the case of `FC(F)(F)c1ccc(CNc2nsc3ccccc23)cc1` [JMM005], the EC50 on NPEPPS was 34.7 µM. In addition, in the data set on HEK293T cells, the IC50 is 117 µM and the Therapeutic index came to 3.42.
`O=C(Nc1nsc2ccccc12)c1ccc2c(c1)OCCO2` [JMM006]: the IC50 in the data set with HEK293T cells is 282 µM.
Still for that read-out and setting: for `O=C(Nc1nsc2ccccc12)c1ccc(C(F)(F)F)cc1` [JMM007] the value was 1740 µM.
`c1ccc(CNc2nsc3ccccc23)cc1` [JMM009]: the EC50 on NPEPPS was 129 µM. In the data set with HEK293T cells, the IC50 is 224 µM and the Therapeutic index was 1.76.
In the data set on HEK293T cells, `COc1cccc(CNc2nsc3ccccc23)c1` [JMM010] had an IC50 of 97.7 µM.
Regarding `Fc1ccc(CNc2nsc3ccccc23)cc1` [JMM011], at NPEPPS, a half-maximal effect (EC50) was put at 316 µM. Also, in the data set with HEK293T cells, it took 389 µM to reach half-maximal inhibition (IC50) and the Therapeutic index was 1.25.
Take `c1ccc2c(NCc3ccncc3)nsc2c1` [JMM012]: the EC50 on NPEPPS is 148 µM. Also, in the data set on HEK293T cells, 126 µM corresponded to half-maximal inhibition (IC50) and the Therapeutic index is reported as 0.86.
At NPEPPS, `c1ccc(COc2ccc(CNc3nsc4ccccc34)cc2)cc1` [JMM014] showed an EC50 of 12.9 µM. Also, in the data set with HEK293T cells, the IC50 is 22.4 µM and the Therapeutic index worked out at 1.75.
In the same order, the values of `Brc1ccc(CNc2nsc3ccccc23)cc1` [JMM016] are 126 µM, 47.9 µM and 0.38.
Take `c1ccc2c(NCc3ccc4c(c3)OCCO4)nsc2c1` [JMM017]: the concentration for a half-maximal effect (EC50) on NPEPPS is 288 µM. In addition, in the data set with HEK293T cells, the IC50 was 204 µM and the Therapeutic index was 0.71.
`c1ccc2c(CNc3nsc4ccccc34)c3ccccc3cc2c1` [JMM018]: in the data set on HEK293T cells, inhibition was half-maximal at 9550 µM (IC50).
With `CN(C)c1ccc(CNc2nsc3ccccc23)cc1` [JMM019], on NPEPPS, the EC50 is 240 µM. Besides, in the data set with HEK293T cells, the IC50 is 195 µM and the Therapeutic index turned out to be 0.82.
For `COc1ccc(CCNc2nsc3ccccc23)cc1OC` [JMM020], the EC50 on NPEPPS was 251 µM. Besides, in the data set on HEK293T cells, the IC50 was 120 µM and the Therapeutic index stood at 0.48.
For the molecule `Clc1ccc(CNc2nsc3ccccc23)cc1Cl` [JMM021], on NPEPPS, the EC50 is 32.4 µM. In the data set on HEK293T cells, the IC50 was 58.9 µM and the Therapeutic index turned out to be 1.80.
Take `Fc1cc(Cl)ccc1CNc1nsc2ccccc12` [JMM022]: at NPEPPS, the midpoint of the response, the EC50, lay at 186 µM. In the data set on HEK293T cells, half-maximal inhibition (IC50) required 6460 µM and the Therapeutic index was determined as 34.72.
`Cc1ccc(CNc2nsc3ccccc23)cc1` [JMM023] showed an EC50 at NPEPPS of 51.3 µM. In the data set on HEK293T cells, the IC50 was 229 µM and the Therapeutic index is reported as 4.47.
Turning to `COC(=O)c1ccc(CNc2nsc3ccccc23)cc1` [JMM024], on NPEPPS, the EC50 is 158 µM. In the data set on HEK293T cells, half-maximal inhibition (IC50) required 437 µM and the Therapeutic index was 2.76.
In turn, `COc1ccc(Nc2nsc3ccccc23)cc1OC` [JMM025] had an EC50 at NPEPPS of 372 µM. In addition, in the data set with HEK293T cells, the IC50 is 575 µM and the Therapeutic index is 1.54.
On to `COc1ccc(CNc2nsc3cccc(OC)c23)cc1OC` [JMM026], for which, on NPEPPS, the midpoint of the response, the EC50, lay at 41.7 µM. Further, in the data set on HEK293T cells, inhibition was half-maximal at 129 µM (IC50) and the Therapeutic index is 3.05.
As for `Fc1cccc2c(NCc3ccc(C(F)(F)F)cc3)nsc12` [JMM027], the EC50 on NPEPPS is 53.7 µM. Also, in the data set with HEK293T cells, the midpoint of inhibition, the IC50, lay at 52.5 µM and the Therapeutic index was 0.98.
At NPEPPS, `FC(F)(F)c1ccc(CNc2nsc3c(Br)cccc23)cc1` [JMM028] gave an EC50 of 28.8 µM. Moreover, in the data set on HEK293T cells, the midpoint of inhibition, the IC50, lay at 33.9 µM and the Therapeutic index was found to be 1.19.
In the same order, the values of `c1ccc(C(Nc2nsc3ccccc23)c2ccccc2)cc1` [JMM029] are 7.08 µM, 324 µM and 45.28.
At NPEPPS, `c1cc(CNc2nsc3ccccc23)c2cc[nH]c2c1` [JMM030] showed a concentration giving a half-maximal response (EC50) of 219 µM. Further, in the data set with HEK293T cells, half-maximal inhibition (IC50) required 257 µM and the Therapeutic index was 1.16.
In the data set on HEK293T cells, `COc1ccc(CNc2nccc3ccccc23)cc1OC` [JMM034] gave an IC50 of 186 µM.
In the data set with HEK293T cells, `COc1ccc(CNc2ncnc3ccccc23)cc1OC` [JMM036] had an IC50 of 135 µM.
As for `CS(=O)(=O)N(Cc1ccc(C(F)(F)F)cc1)c1nsc2ccccc12` [JMM071], the IC50 in the data set with HEK293T cells was 10 µM.
Turning to `c1ccc2c(CNc3nsc4ccccc34)nccc2c1` [JMM074], in the data set on HEK293T cells, the 50% inhibitory concentration (IC50) is 1820 µM.
`O=C1c2ccccc2C(=O)N1c1nsc2cnccc12` [JMM085]: half-maximal inhibition with HEK293T cells (IC50) was put at 3160 µM.
In the data set with HEK293T cells, `c1ccc2c(c1)CN(c1nsc3ccccc13)C2` [JMM087] gave an IC50 of 229 µM.
Regarding `c1ccc(COc2ccc3snc(NC4c5ccccc5-c5ccccc54)c3c2)cc1` [JMM089], the IC50 in the data set on HEK293T cells is 3310 µM.
The same measure, in the same setting: under `c1ccc(COc2ccc3snc(NCc4ccc(OCc5ccccc5)c5ccccc45)c3c2)cc1` [JMM116, 5-(Benzyloxy)-N-((4-(benzyloxy)naphthalen-1-yl)methyl)benzo[d]isothiazol-3-amine] stands 1000 µM.
Molecule `c1ccc(COc2ccc3snc(NCc4ccc(Cc5ccccc5)cc4)c3c2)cc1` [JMM120, N-(4-benzylbenzyl)-5-(benzyloxy)benzo[d]isothiazol-3-amine] had an IC50 in the data set on HEK293T cells of 1050 µM.
Still for that read-out and setting: for `Cc1cc(C)c(COc2ccc(CNc3nsc4ccc(OCc5ccccc5)cc34)cc2)c(C)c1` [JMM123, 5-(Benzyloxy)-N-(4-((2,4,6-trimethylbenzyl)oxy)benzyl)benzo[d]isothiazol-3-amine] the value was 661 µM; for `c1ccc(COc2ccc3snc(NCc4ccc(COc5ccccc5)cc4)c3c2)cc1` [JMM124, 5-(Benzyloxy)-N-(4-(phenoxymethyl)benzyl)benzo[d]isothiazol-3-amine], 724 µM; for `c1ccc(COc2ccc3snc(NCc4ccc(N(Cc5ccccc5)Cc5ccccc5)cc4)c3c2)cc1` [JMM126, 5-(Benzyloxy)-N-(4-(dibenzylamino)benzyl)benzo[d]isothiazol-3-amine], 1260 µM.
Regarding `CC(C)C[C@H](NC(=O)[C@@H](O)[C@H](N)Cc1ccccc1)C(=O)O` [bestatin, reference compound], the “fluorescence change (NPEPPS activity)” value at NPEPPS is reported as “decreases in fluorescence change”.
As to `COc1ccc(C[C@H](N)C(=O)N[C@H]2[C@@H](O)[C@H](n3cnc4c(N(C)C)ncnc43)O[C@@H]2CO)cc1` [puromycin, reference compound], at NPEPPS, the “fluorescence change (NPEPPS activity)” value is “decreases in fluorescence change”.

Source of the values: patent US20240174625A1, “COMPOSITIONS AND METHODS FOR TREATING TAUOPATHIES” (The Regents of the University of California, priority 2021, published 2024).
